{
  "source": "patent US10047067B2",
  "about": "“Composition for treating kidney disease comprising pyrazole derivative” (Ewha University-Industry Collaboration Foundation, priority 2012, dated 2018)",
  "key": {"[1]": {"tested_on": "collagen Iα1 expression in proximal tubular cells (mProx24)", "experiment": "Inhibitory effect on collagen Iα1 expression in proximal tubular cells (hTGF-β1 stimulated, real-time PCR)", "format": "cell-based", "details": "Mus musculus", "protocol": "mProx24, which is a name of the proximal tubular cells derived from proximal tubule segments obtained by finely sectioning the kidney of adult C57BL6/J mice, was granted from Professor Sugaya, St. Marianna University School of Medicine, Kanagawa, Japan. mProx24 was cultured in DMEM (Dulbecco's modified Eagle's medium) supplemented with 10% fetal calf serum (FCS, Gibco), 100 U/ml penicillin, 100 μg/ml streptomycin, and 44 mM NaHCO3 at 37° C. in a 5% CO2 atmosphere. For quantitation of RNA expression, the cells were cultured in 6-well plates. When the cells grew 90% confluent, the medium was changed with a fresh 0.15% FCS (Gibco)-supplemented DMEM. Incubation in this medium for 24 hrs halted the cell growth to synchronize the growth cycle in the cells. Compounds of Examples 1 to 9 and Comparative Example were respectively dissolved in DMSO (dimethylsulfoxide) to form a concentration of 50 mM, and subjected to serial dilution to 10 mM, 1 mM, 0.1 mM, and 0.01 mM. 10 mM, 1 mM, 0.1 mM, and 0.01 mM solutions of each of the compounds of Examples 1 to 9 and Comparative Example were 1,000-fold diluted in 0.15% FCS (Gibco)-supplemented DMEM to form final concentrations of 10 μM, 1 μM, 0.1 μM, and 0.01 μM, respectively. In addition, 0 μM (DMSO 1 μL) was used. The cells were incubated for 1 hr in the dilutions and then for 6 hrs in the presence of 5 ng/ml recombinant human transforming growth factor-β1 (hTGF-β1, R&D Systems). For the control, hTGF-β1 was not used. Total RNA was extracted from mProx24 using Trizol (Invitrogen). For quantitation of mRNA expression, a reaction volume of 20 μL including cDNA transcripts, primer pairs, and SYBR Green PCR Master Mix (Applied Biosystems) was subjected to real-time PCR with the aid of StepOnePlus (Applied Biosystems) (real-time PCR condition: 95° C., 10 min→40 thermal cycles of denaturation at 95° C. for 15 sec and primer annealing at 60° C. for 1 min→95° C. for 15 sec, 60° C. for 1 min, and 95° C. for 15 sec to measure a melting curve). Quantitation was normalized to 18S rRNA expression level. A pair of primers for mouse collagen Iα1 were 5′-[…]-3′(SEQ ID NO: 13) and 5′-[…]-3′ (SEQ ID NO: 14). Forward and reverse primers for mouse r18S rRNA were 5′-CGAAAGCATTTGCCAAGAAT-3′ (SEQ ID NO: 11) and 5′-AGTCGGCATCGTTTATGGTC-3′ (SEQ ID NO: 12), respectively.\nExperiment results are given in Tables 3 to 12 and FIGS. 4 to 13. Tables 3 to 12 and FIGS. 4 to 13 show inhibitory effects of the compounds of Examples 1 to 9 and Comparative Example 1 on collagen Iα1 expression in proximal tubular cells.\nData of Tables 3 to 12 and FIGS. 4 to 13 are measurements of experiments repeated three to five times for each concentration, and are expressed as mean±standard error (SE). Statistic comparison among the groups was analyzed by ANOVA and Fisher's least significant difference test, with significance at p<0.05. *P<0.05 vs. WT, †P<0.05 vs. DM.\nIn Tables 3 to 12, mean values of expression level ratios of collagen Iα1 (Col1α) to 18S rRNA (18S), and % inhibition against collagen Iα1 expression for each group are shown, together with IC50 value (μM). In this regard, % inhibition means relative inhibition to 100% for the control and 0% for the group that was treated with hTGF-β1 but not with any of the compounds of Examples or Comparative Example."}, "C57BL/6J mice": {"tested_on": "C57BL/6J mice", "experiment": "Collagen accumulation (Masson's trichrome, picrosirius red) and macrophage marker F4/80 immunohistochemical staining of renal tissue", "format": "in vivo", "details": "treatment group vs diabetes group, 10 mg/kg/day oral, 12 weeks; listed as Example 1, 10 mg/kg/day", "protocol": "Immunohistochemical staining was performed as previously disclosed (Noh H, Kim J S, Han K-H, Lee G T, Song J S, Chung S H, Jeon J S, Ha H, Lee H B: Oxidative stress during peritoneal dialysis: implications in functional and structural changes in the membrane. Kidney Int. 69: 2022-2028, 2006).\nBriefly, as described in Example 11, diabetes was induced in mice that were then treated with 1-(pyridin-2-yl)-3-phenyl-4-propyl-1H-pyrazol-5-ol.HCl, the compound of Example 1, and scarified 12 weeks later. After cardiac perfusion with 0.1 M PBS (phosphate-buffered saline), tissue fixation was performed overnight with 2% PLP (paraformaldehyde-lysine-periodate). Paraffin embedding was conducted by sequential treatment with: 70% ethanol for 1 hr; 80% ethanol for 1 hr; 90% ethanol for 1 hr; 95% ethanol for 1 hr, twice; 100% ethanol for 1 hr, three times; xylene for 30 min, twice; paraffin for 30 min; and paraffin for 1.5 hrs. The paraffin tissue was sliced into a section 4 μm thick, followed by deparaffinization with alcohol. In order to enhance antibody penetration thereinto, the renal tissue was immersed in 10 mM citrate buffer (pH 6.0), heated with microwaves (at 700 watts for 5 min and then at 100 watts for 5 min), and then finally incubated at room temperature for 30 min Intrinsic peroxidase was removed by treatment with peroxidase blocking reagent (Peroxidase Blocking Reagent Ready-To-Use, Dakocytomation) for 30 min. Subsequently, the renal tissue was incubated with a protein block serum-free solution (Protein Blocking Serum-Free Ready-To-Use, Dakocytomation) for 15 min and then overnight with a primary antibody (F4/80, Santa Cruz) at 4° C., followed by amplification with ABC kit (Santa Cruz) using the ABC (avidin-biotin-enzyme complex) method. […]\nTo examine tissue injury, staining was performed with Masson's trichrome (Sigma-Aldrich) and picrosirius red (Sigma-Aldrich) according to the manufacturer's instructions. The degree of tissue injury was expressed as tubulointerstitial collagen accumulation per area. […]"}},
  "note": "Entries after “also recorded” stand apart in the source; their conditions may differ.",
  "data": [
    {"molecule": "CCCc1c(-c2ccccc2)nn(-c2ccccn2)c1O.Cl", "note": "[Compound 18-278, 1-(pyridin-2-yl)-3-phenyl-4-propyl-1H-pyrazol-5-ol.HCl]", "values": [
      {"measurement": "mrna remaining at 0.01 µM", "setting": "[1]; Col1, 0.01 μM compound, mProx24, 5 ng/ml hTGF-β1 6 hrs, relative to hTGF-β1 alone = 1, read-out: Mean expression level ratio of collagen Iα1 (Col1α) to 18S rRNA", "result": 82.1, "unit": "%"},
      {"measurement": "mrna remaining at 0.1 µM", "setting": "[1]; Col1, 0.1 μM compound, mProx24, 5 ng/ml hTGF-β1 6 hrs, relative to hTGF-β1 alone = 1, read-out: Mean expression level ratio of collagen Iα1 (Col1α) to 18S rRNA", "result": 70.1, "unit": "%"},
      {"measurement": "mrna remaining at 1 µM", "setting": "[1]; Col1, 1 μM compound, mProx24, 5 ng/ml hTGF-β1 6 hrs, relative to hTGF-β1 alone = 1, read-out: Mean expression level ratio of collagen Iα1 (Col1α) to 18S rRNA", "result": 51.6, "unit": "%"},
      {"measurement": "mrna remaining at 10 µM", "setting": "[1]; Col1, 10 μM compound, mProx24, 5 ng/ml hTGF-β1 6 hrs, relative to hTGF-β1 alone = 1, read-out: Mean expression level ratio of collagen Iα1 (Col1α) to 18S rRNA", "result": 36.9, "unit": "%"},
      {"measurement": "inhibition at 0.01 µM", "setting": "[1]; 0.01 μM compound, mProx24, 100% = control without hTGF-β1, 0% = hTGF-β1 alone, read-out: expression inhibition rate (collagen Iα1)", "result": 20, "unit": "%"},
      {"measurement": "inhibition at 0.1 µM", "setting": "[1]; 0.1 μM compound, mProx24, 100% = control without hTGF-β1, 0% = hTGF-β1 alone, read-out: expression inhibition rate (collagen Iα1)", "result": 33.5, "unit": "%"},
      {"measurement": "inhibition at 1 µM", "setting": "[1]; 1 μM compound, mProx24, 100% = control without hTGF-β1, 0% = hTGF-β1 alone, read-out: expression inhibition rate (collagen Iα1)", "result": 54.2, "unit": "%"},
      {"measurement": "inhibition at 10 µM", "setting": "[1]; 10 μM compound, mProx24, 100% = control without hTGF-β1, 0% = hTGF-β1 alone, read-out: expression inhibition rate (collagen Iα1)", "result": 70.7, "unit": "%"},
      {"measurement": "IC50", "setting": "[1]; mProx24, hTGF-β1 stimulated, read-out: IC50 (inhibition of collagen Iα1 expression)", "result": 742, "unit": "nM"},
      {"measurement": "collagen accumulation, Masson's trichrome staining (blue area)", "setting": "C57BL/6J mice", "result": "in a smaller area than was the diabetes group; also recorded: significantly reduced"},
      {"measurement": "collagen accumulation, picrosirius red staining (red area)", "setting": "C57BL/6J mice", "result": "a smaller area; also recorded: significantly reduced"},
      {"measurement": "macrophage production, immunohistochemical staining (F4/80)", "setting": "C57BL/6J mice", "result": "in a smaller area than was the diabetes group; also recorded: significantly reduced"}
    ]}
  ]
}
